Laboratory results: ChEMBL document CHEMBL1201862, “PubChem BioAssay data set” (2004)
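96-well plates; 48 h exposure; 5 concentrations. Endpoints by linear interpolation between flanking doses. Not reached: highest tested concentration assigned. GI50 is the concentration that inhibits growth by half.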 Activity calls are given as the source filed them. Cut-off read from the data, not from the text of the source: active = GI50 up to about 1.1 µM and inactive = higher.

Legend:
Assay in all cases: NCI-60 cell line screen, 48 h
HCC 2998 = test system: HCC 2998
RXF 393 = test system: RXF 393
UACC-257 = test system: UACC-257
SN12C = test system: SN12C
TK-10 = test system: TK-10
RPMI-8226 = test system: RPMI-8226
CAKI-1 = test system: CAKI-1
UACC-62 = test system: UACC-62
MOLT-4 = test system: MOLT-4
ACHN = test system: ACHN
IGROV-1 = test system: IGROV-1
SW-620 = test system: SW-620
SF-539 = test system: SF-539
SK-MEL-28 = test system: SK-MEL-28
HOP-92 = test system: HOP-92
SR = test system: SR
SF-268 = test system: SF-268
786-0 = test system: 786-0
HOP-62 = test system: HOP-62
MDA-N = test system: MDA-N

Measured: GI50

O=C(NC1CCCCCC1)C1C(=O)N(C2CCCCCC2)C(=O)/C1=N\O (stereo not given)
inactive: HCC 2998 19.5 µM | RXF 393 23.5 µM | UACC-257 38.8 µM | SN12C 34.7 µM | TK-10 6.12 µM | RPMI-8226 29.1 µM | CAKI-1 40.2 µM | UACC-62 21 µM | MOLT-4 21.5 µM | ACHN 35.2 µM | IGROV-1 50 µM | SW-620 37.6 µM | SF-539 25.2 µM | SK-MEL-28 30 µM | HOP-92 20.6 µM | SR 23.8 µM | SF-268 29.1 µM | 786-0 32.8 µM | HOP-62 18.7 µM

COc1ccc(/C=C2\CNC/C(=C\c3ccc(OC)cc3)C2=O)cc1
inactive: HCC 2998 35.3 µM | RXF 393 21 µM | UACC-257 75.3 µM | SN12C 37.1 µM | TK-10 > 100 µM | RPMI-8226 15.6 µM | CAKI-1 14.1 µM | UACC-62 49.4 µM | MOLT-4 15.8 µM | ACHN > 100 µM | IGROV-1 48.2 µM | SW-620 15.8 µM | SF-539 13.6 µM | SK-MEL-28 87.9 µM | HOP-92 56.9 µM | SR 24.8 µM | SF-268 24.1 µM | 786-0 46.3 µM | HOP-62 > 100 µM

COc1ccc(NC(=S)c2ccoc2C)cc1CC(=O)OC(C)C
inactive: HCC 2998 45.5 µM | UACC-257 33.4 µM | SN12C 66.1 µM | MDA-N 31 µM | TK-10 33.3 µM | RPMI-8226 50.8 µM | CAKI-1 29.2 µM | UACC-62 26 µM | MOLT-4 18.8 µM | ACHN 30.8 µM | IGROV-1 36 µM | SW-620 36.1 µM | SF-539 37.3 µM | SK-MEL-28 34.4 µM | HOP-92 20.6 µM | SF-268 43.4 µM | 786-0 > 100 µM

ON/N=C/c1cc2c(cc1Br)OCO2
inactive: HCC 2998 > 386 µM | RXF 393 114 µM | UACC-257 > 386 µM | SN12C > 386 µM | TK-10 > 386 µM | RPMI-8226 > 386 µM | CAKI-1 > 386 µM | UACC-62 > 386 µM | MOLT-4 383 µM | ACHN > 386 µM | IGROV-1 > 386 µM | SW-620 > 386 µM | SF-539 > 386 µM | SK-MEL-28 > 386 µM | HOP-92 144 µM | SR > 386 µM | SF-268 247 µM | 786-0 > 386 µM | HOP-62 > 386 µM

O=[N+]([O-])c1cc(/C=N\NS(=O)(=O)c2ccc(Cl)cc2)c(O)c([N+](=O)[O-])c1
inactive: HCC 2998 85.7 µM | RXF 393 32.8 µM | UACC-257 66.5 µM | SN12C 25.6 µM | TK-10 > 100 µM | RPMI-8226 19 µM | CAKI-1 30.5 µM | UACC-62 32.4 µM | MOLT-4 29.2 µM | ACHN 49.8 µM | IGROV-1 74.8 µM | SW-620 34.6 µM | SF-539 23.3 µM | SK-MEL-28 93.3 µM | HOP-92 36.3 µM | SR 21 µM | SF-268 38 µM | 786-0 36.1 µM | HOP-62 47.3 µM

N#Cc1nnn(C2CCCCC2)c1O
inactive: HCC 2998 > 100 µM | RXF 393 > 100 µM | UACC-257 > 100 µM | SN12C > 100 µM | MDA-N > 100 µM | TK-10 > 100 µM | RPMI-8226 10 µM | CAKI-1 > 100 µM | UACC-62 > 100 µM | MOLT-4 > 100 µM | ACHN > 100 µM | IGROV-1 > 100 µM | SW-620 > 100 µM | SF-539 > 100 µM | SK-MEL-28 > 100 µM | SF-268 > 100 µM | 786-0 > 100 µM | HOP-62 > 100 µM

CC(=O)O/N=C(Cl)/C(Cl)=N/OC(C)=O
inactive: HCC 2998 > 100 µM | RXF 393 > 100 µM | UACC-257 > 100 µM | SN12C > 100 µM | TK-10 > 100 µM | RPMI-8226 > 100 µM | CAKI-1 > 100 µM | UACC-62 > 100 µM | MOLT-4 > 100 µM | ACHN > 100 µM | IGROV-1 > 100 µM | SW-620 > 100 µM | SF-539 > 100 µM | SK-MEL-28 > 100 µM | HOP-92 > 100 µM | SR > 100 µM | SF-268 > 100 µM | 786-0 > 100 µM | HOP-62 > 100 µM

CS(=O)(=O)c1nc(-c2cc3c(c(S(C)(=O)=O)n2)CCC3)cc2c1CCCC2
inactive: HCC 2998 > 100 µM | RXF 393 15.6 µM | UACC-257 > 100 µM | SN12C > 100 µM | MDA-N > 100 µM | TK-10 64.9 µM | RPMI-8226 > 100 µM | CAKI-1 17 µM | UACC-62 14.4 µM | MOLT-4 > 100 µM | ACHN 37 µM | IGROV-1 18.3 µM | SW-620 > 100 µM | SF-539 49.3 µM | SK-MEL-28 > 100 µM | SF-268 7.76 µM | 786-0 35.3 µM | HOP-62 24.1 µM

C1=C2C3=[N+](CCCC3)CC2Cc2ccsc21 (stereo not given)
inactive: RXF 393 65 µM | UACC-257 33.9 µM | SN12C > 100 µM | MDA-N > 100 µM | TK-10 87.7 µM | CAKI-1 > 100 µM | UACC-62 > 100 µM | MOLT-4 > 100 µM | ACHN > 100 µM | IGROV-1 > 100 µM | SW-620 > 100 µM | SK-MEL-28 > 100 µM | HOP-92 69.5 µM | SF-268 > 100 µM | 786-0 > 100 µM | HOP-62 > 100 µM

CC(C)=CCC[C@@H](C)C1=C(O)C(=O)C(C)=C(c2c(I)c(=O)n(C)c(=O)n2C)C1=O
inactive: HCC 2998 > 100 µM | UACC-257 > 100 µM | SN12C > 100 µM | MDA-N > 100 µM | TK-10 > 100 µM | RPMI-8226 61 µM | CAKI-1 > 100 µM | MOLT-4 36.8 µM | ACHN > 100 µM | IGROV-1 60.3 µM | SW-620 > 100 µM | SF-539 > 100 µM | SK-MEL-28 > 100 µM | HOP-92 > 100 µM | SF-268 > 100 µM | 786-0 > 100 µM | HOP-62 > 100 µM

COc1cc(Cn2c3ccccc3c3cc(C)c4c(c32)C=CC(C)(CCC=C(C)C)O4)cc2c1[nH]c1ccccc12 (stereo not given) [CHRESTFOLINE C]
inactive: HCC 2998 > 100 µM | RXF 393 > 100 µM | UACC-257 > 100 µM | SN12C > 100 µM | TK-10 > 100 µM | RPMI-8226 > 100 µM | CAKI-1 > 100 µM | UACC-62 > 100 µM | MOLT-4 > 100 µM | ACHN > 100 µM | IGROV-1 > 100 µM | SW-620 > 100 µM | SF-539 > 100 µM | SK-MEL-28 > 100 µM | HOP-92 > 100 µM | SR > 100 µM | SF-268 > 100 µM | 786-0 > 100 µM | HOP-62 > 100 µM
